In the supplement of paper PMC10307832:

Experiments:
Assay in all cases: relative viability (nuclei count vs DMSO), 5 days (fraction); higher = more cells survive
[1] = compound: C1CC(C1)(C(=O)O)C(=O)O.[NH2-].[NH2-].[Pt+2] [Carboplatin] + CS(=O)(=O)CCNCc1ccc(-c2ccc3ncnc(Nc4ccc(OCc5cccc(F)c5)c(Cl)c4)c3c2)o1 [Lapatinib] (partner 2 µM)
How it was run: (§1)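 Lung cancer cell lines in 1536-well plates got either a single drug or a fixed anchor-drug dose together with five library-drug doses (not always all listed) in √10 steps, by pin tool, on the day after seeding. Nuclei were counted after 5 days, and relative viability is the treated-to-vehicle ratio of nuclei counts. Values are medians of duplicate plates.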

[2] = compound: C1CC(C1)(C(=O)O)C(=O)O.[NH2-].[NH2-].[Pt+2] [Carboplatin] + CS(=O)(=O)N1CCN(Cc2cc3nc(-c4cccc5[nH]ncc45)nc(N4CCOCC4)c3s2)CC1 [Pictilisib] (partner 1 µM)
How it was run: as §1

[3] = compound: NS(=O)(=O)OC[C@@H]1C[C@@H](n2ccc3c(N[C@H]4CCc5ccccc54)ncnc32)C[C@@H]1O [MLN4924] + CS(=O)(=O)N1CCN(Cc2cc3nc(-c4cccc5[nH]ncc45)nc(N4CCOCC4)c3s2)CC1 [Pictilisib] (partner 1 µM)
How it was run: as §1

[4] = compound: NS(=O)(=O)OC[C@@H]1C[C@@H](n2ccc3c(N[C@H]4CCc5ccccc54)ncnc32)C[C@@H]1O [MLN4924] + Nc1ncn([C@H]2C[C@H](O)[C@@H](CO)O2)c(=O)n1 [Decitabine] (partner 2 µM)
How it was run: as §1

Cell Line	relative viability ([1]; first compound 0.08 µM)	relative viability ([1]; first compound 0.253 µM)	relative viability ([1]; first compound 0.8 µM)	relative viability ([1]; first compound 2.53 µM)	relative viability ([1]; first compound 8 µM)	relative viability ([2]; first compound 0.08 µM)	relative viability ([2]; first compound 0.253 µM)	relative viability ([2]; first compound 0.8 µM)	relative viability ([2]; first compound 2.53 µM)	relative viability ([2]; first compound 8 µM)	relative viability ([3]; first compound 0.04 µM)	relative viability ([3]; first compound 0.1265 µM)	relative viability ([3]; first compound 0.4 µM)	relative viability ([3]; first compound 1.265 µM)	relative viability ([3]; first compound 4 µM)	relative viability ([4]; first compound 0.04 µM)	relative viability ([4]; first compound 0.1265 µM)	relative viability ([4]; first compound 0.4 µM)	relative viability ([4]; first compound 1.265 µM)	relative viability ([4]; first compound 4 µM)
NCI-H1651	0.852	0.743	0.965	0.837	0.497	0.681	0.498	0.644	0.452	0.411	0.706	0.514	0.45	0.0787	0.115	0.578	0.586	0.46	0.216	0.146
NCI-H1666	0.662	0.665	0.578	0.498	0.468	0.527	0.561	0.404	0.403	0.389	0.404	0.478	0.247	0.159	0.156	0.699	0.622	0.417	0.393	0.389
NCI-H1734	1.01	1.07	1.06	1.01	0.833	0.51	0.47	0.487	0.451	0.424	0.568	0.743	0.29	0.13	0.154	0.514	0.472	0.197	0.141	0.135
NCI-H1755	1.06	1.1	1.11	1.09	0.995	0.432	0.442	0.407	0.417	0.391	0.221	0.358	0.287	0.134	0.139	0.644	0.545	0.526	0.378	0.245
NCI-H1792	1	1.02	0.941	0.817	0.8	0.327	0.261	0.236	0.22	0.246	0.375	0.387	0.34	0.147	0.122	0.72	0.556	0.571	0.377	0.219
NCI-H1793	0.941	0.49	0.485	0.628	0.833	0.396	0.345	0.316	0.382	0.329	0.322	0.284	0.273	0.245	0.121	0.49	0.463	0.482	0.318	0.195
NCI-H1915	0.906	1.03	0.976	0.999	0.577	0.938	0.929	0.919	0.85	0.588	0.773	0.81	0.59	0.215	0.201	0.271	0.262	0.235	0.202	0.142
NCI-H1944	0.783	0.978	0.833	0.919	0.586	0.338	0.321	0.336	0.327	0.342	0.405	0.38	0.376	0.182	0.178	0.454	0.324	0.334	0.17	0.146
NCI-H1975	0.877	0.993	0.838	0.826	0.884	0.324	0.305	0.306	0.315	0.302	0.534	0.699	0.314	0.167	0.156	0.413	0.429	0.309	0.237	0.201
NCI-H1993	0.834	0.843	0.909	0.791	0.853	0.805	0.891	0.745	0.869	0.811	0.701	0.681	0.7	0.647	0.643	0.666	0.523	0.451	0.424	0.422
NCI-H2009	1.37	0.89	0.837	0.958	0.572	0.825	0.816	0.761	0.79	0.558	0.456	0.159	0.236	0.0505	0.0867	0.342	0.289	0.218	0.174	0.118
NCI-H2023	0.941	1.21	0.954	0.68	0.257	0.262	0.27	0.261	0.192	0.171	0.315	0.145	0.101	0.0651	0.0705	0.177	0.178	0.119	0.0603	0.062
NCI-H2085	0.8	0.897	0.787	0.748	0.815	0.525	0.502	0.477	0.458	0.399	0.479	0.719	0.594	0.457	0.42	0.492	0.58	0.612	0.48	0.424
NCI-H2087	1.22	0.968	0.86	0.969	0.833	0.968	0.868	0.859	0.826	0.504	0.972	0.75	0.342	0.118	0.133	0.197	0.248	0.253	0.0811	0.061
NCI-H2126	0.737	0.758	0.796	0.8	0.721	0.47	0.516	0.518	0.511	0.452	0.497	0.457	0.315	0.267	0.264	0.526	0.49	0.425	0.293	0.231
NCI-H2170	0.273	0.279	0.269	0.257	0.262	0.361	0.266	0.357	0.33	0.283	0.36	0.37	0.217	0.135	0.171	0.444	0.249	0.273	0.167	0.144
